Laboratory results taken from US12239643B2, “Therapeutic agent for inflammatory diseases, autoimmune diseases, fibrotic diseases, and cancer diseases” (MEIJI SEIKA PHARMA CO., LTD., priority 2018, dated 2025).
Where two headings read alike, the source gives them in different places.

Test system: PDE4
Test: Evaluation of PDE4 inhibitory activity, scintillation proximity assay
Type: biochemical
Details: scintillation proximity assay
Procedure, shortened: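 SPA with [2,8-3H]-cAMP and diluted PDE4 enzyme preparation in 50 mM Tris-HCl pH 7.4, 8.3 mM MgCl2, 1.7 mM EGTA, 3 mg/mL BSA, 120 min at room temperature. Product captured on ZnSO4-containing YSi-SPA beads, scintillation counted; IC50 from inhibition curves vs DMSO control and no-enzyme blank.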

[1] = read-out: PDE4 Inhibitory Activity (Evaluation 1; concentration for the inhibition rate of 50%)
[2] = class symbols of Evaluation 1, read-out: PDE4 Inhibitory Activity (concentration for the inhibition rate of 50%, IC50), Evaluation 1

Row | Compound | IC50 [1] [nM] | IC50 [2] [nM]
1 | CC(O)c1cc(-c2nccs2)c2oc(N3CC4CC(C3)N4)nc2c1OC(F)(F)F (centres unmarked) [Example 273, 1-(2-(3,6-Diazabicyclo[3.1.1]heptan-3-yl)-7-(thiazol-2-yl)-4-(trifluoromethoxy)benzo[d]oxazol-5-yl)ethan-1-ol] | < 100 | 
2 | COC(c1cc(-c2nccs2)c2oc(N3CC4CCC(C3)N4)nc2c1)C(F)(F)F (centres unmarked) [Example 142, 2-(3,8-Diazabicyclo[3.2.1]octan-3-yl)-7-(thiazol-2-yl)-5-(2,2,2-trifluoro-1-methoxyethyl)benzo[d]oxazole] |  | < 100
3 | CC(=O)OC(c1cc(-c2nccs2)c2oc(N3CC4CCC(C3)N4)nc2c1)C(F)(F)F (centres unmarked) [Example 141, 1-(2-(3,8-Diazabicyclo[3.2.1]octan-3-yl)-7-(thiazol-2-yl)benzo[d]oxazol-5-yl)-2,2,2-trifluoroethyl acetate] |  | < 100
4 | COC(C)(c1cc(-c2nccs2)c2oc(N3CC4CC(C3)N4)nc2c1)C(F)(F)F (centres unmarked) [Example 103, 2-(3,6-Diazabicyclo[3.1.1]heptan-3-yl)-7-(thiazol-2-yl)-5-(1,1,1-trifluoro-2-methoxypropan-2-yl)benzo[d]oxazole] |  | < 100
5 | OC(c1cc(-c2nccs2)c2oc(N3CC4CCC(C3)N4)nc2c1OC(F)(F)F)C(F)F (centres unmarked) [Example 206, 1-(2-(3,8-Diazabicyclo[3.2.1]octan-3-yl)-7-(thiazol-2-yl)-4-(trifluoromethoxy)benzo[d]oxazol-5-yl)-2,2-difluoroethan-1-ol] | < 100 | 
6 | COC(C)(c1cc(-c2nccs2)c2oc(N3CC4CCCC(C3)N4)nc2c1)C(F)(F)F (centres unmarked) [Example 162] |  | < 100
7 | O=C(c1cc(-c2nccs2)c2oc(N3CC4CCC(C3)N4)nc2c1OC(F)(F)F)N1CC(O)(C(F)(F)F)C1 [Example 194, (2-(3,8-Diazabicyclo[3.2.1]octan-3-yl)-7-(thiazol-2-yl)-4-(trifluoromethoxy)benzo[d]oxazol-5-yl)(3-hydroxy-3-(trifluoromethyl)azetidin-1-yl)methanone] | 100 to 1000 | 
8 | CC(O)c1cc(-c2nccs2)c2oc(N3CC4CCC(C3)N4)nc2c1OC(F)(F)F (centres unmarked) [Example 202, 1-(2-(3,8-Diazabicyclo[3.2.1]octan-3-yl)-7-(thiazol-2-yl)-4-(trifluoromethoxy)benzo[d]oxazol-5-yl)ethan-1-ol] | < 100 | 
9 | c1csc(-c2ccc(OC3CCOC3)c3nc(N4CC5CCC(C4)N5)oc23)n1 (centres unmarked) [Example 84, 2-(3,8-Diazabicyclo[3.2.1]octan-3-yl)-4-((tetrahydrofuran-3-yl)oxy)-7-(thiazol-2-yl)benzo[d]oxazole] |  | < 100
10 | CCOC(=O)c1ccc(-c2nccs2)c2oc(N3CC4CCCC(C3)N4)nc12 [Example 114, Ethyl 2-(3,9-diazabicyclo[3.3.1]nonan-3-yl)-7-(thiazol-2-yl)benzo[d]oxazole-4-carboxylate] |  | < 100
11 | CC(=O)Nc1cc(-c2nccs2)c2oc(N3CC4CCC(C3)N4)nc2c1 [Example 50, N-(2-(3,8-diazabicyclo[3.2.1]octan-3-yl)-7-(thiazol-2-yl)benzo[d]oxazol-5-yl)acetamide] |  | < 100
12 | N#CCOc1cc(-c2nccs2)c2oc(N3CC4CCC(C3)N4)nc2c1 [Example 73, 2-((2-(3,8-Diazabicyclo[3.2.1]octan-3-yl)-7-(thiazol-2-yl)benzo[d]oxazol-5-yl)oxy)acetonitrile] |  | < 100
13 | CC(O)c1cc(-c2nccs2)c2oc(N3CC4CC(C3)N4)nc2c1C(F)(F)F (centres unmarked) [Example 182, 1-(2-(3,6-Diazabicyclo[3.1.1]heptan-3-yl)-7-(thiazol-2-yl)-4-(trifluoromethyl)benzo[d]oxazol-5-yl)ethan-1-ol] | < 100 | 
14 | COC(C)(C)c1cc(-c2cscn2)c2oc(N3CC4CCC(C3)N4)nc2c1OC(F)(F)F [Example 298, 2-(3,8-Diazabicyclo[3.2.1]octan-3-yl)-5-(2-methoxypropan-2-yl)-7-(thiazol-4-yl)-4-(trifluoromethoxy)benzo[d]oxazole] | < 100 | 
15 | OCc1cc(-c2nccs2)c2oc(N3CC4CCC(C3)N4)nc2c1OC(F)(F)F [Example 201, (2-(3,8-Diazabicyclo[3.2.1]octan-3-yl)-7-(thiazol-2-yl)-4-(trifluoromethoxy)benzo[d]oxazol-5-yl)methanol] | < 100 | 
16 | CC(O)c1cc(-c2nccs2)c2oc(N3CC4CC(C3)N4)nc2c1OC(F)(F)F (centres unmarked) [Example 272, 1-(2-(3,6-Diazabicyclo[3.1.1]heptan-3-yl)-7-(thiazol-2-yl)-4-(trifluoromethoxy)benzo[d]oxazol-5-yl)ethan-1-ol] | < 100 | 
17 | COC(c1cc(-c2nccs2)c2oc(N3CC4CCC(C3)N4)nc2c1)C(F)(F)F (centres unmarked) [Example 143, 2-(3,8-Diazabicyclo[3.2.1]octan-3-yl)-7-(thiazol-2-yl)-5-(2,2,2-trifluoro-1-methoxyethyl)benzo[d]oxazole] |  | < 100
18 | CC(C)(O)c1ccc(-c2nccs2)c2oc(N3CC4CCC(C3)N4)nc12 [Example 247, 2-(2-(3,8-Diazabicyclo[3.2.1]octan-3-yl)-7-(thiazol-2-yl)benzo[d]oxazol-4-yl)propan-2-ol] | < 100 | 

Row | Compound | IC50 [1] [nM] | IC50 [2] [nM]
19 | CCOC(=O)c1cc(-c2nccs2)c2oc(N3CC4CCCC(C3)N4)nc2c1OC(F)(F)F [Example 188, Ethyl 2-(3,9-diazabicyclo[3.3.1]nonan-3-yl)-7-(thiazol-2-yl)-4-(trifluoromethoxy)benzo[d]oxazole-5-carboxylate] | < 100 | 
20 | CCOC(=O)c1cc(-n2cccn2)c2oc(N3CC4CCC(C3)N4)nc2c1 [Example 90, Ethyl 2-(3,8-diazabicyclo[3.2.1]octan-3-yl)-7-(1H-pyrazol-1-yl)benzo[d]oxazole-5-carboxylate] |  | 100 to 1000
21 | OC(c1cc(-c2cscn2)c2oc(N3CC4CCC(C3)N4)nc2c1OC(F)(F)F)C(F)F (centres unmarked) [Example 303, 1-(2-(3,8-Diazabicyclo[3.2.1]octan-3-yl)-7-(thiazol-4-yl)-4-(trifluoromethoxy)benzo[d]oxazol-5-yl)-2,2-difluoroethan-1-ol] | < 100 | 
22 | OC(c1cc(-c2nccs2)c2oc(N3CC4CC(C3)N4)nc2c1OC(F)(F)F)C(F)F (centres unmarked) [Example 292, 1-(2-(3,6-Diazabicyclo[3.1.1]heptan-3-yl)-7-(thiazol-2-yl)-4-(trifluoromethoxy)benzo[d]oxazol-5-yl)-2,2-difluoroethan-1-ol] | < 100 | 
23 | CC(O)c1cc(-c2nccs2)c2oc(N3CC4CCC(C3)N4)nc2c1C(F)(F)F (centres unmarked) [Example 181, 1-(2-(3,8-Diazabicyclo[3.2.1]octan-3-yl)-7-(thiazol-2-yl)-4-(trifluoromethyl)benzo[d]oxazol-5-yl)ethan-1-ol] | < 100 | 
24 | FC(F)(F)c1cc(-c2nccs2)c2oc(N3CC4CCC(C3)N4)nc2c1 [Example 51, 2-(3,8-Diazabicyclo[3.2.1]octan-3-yl)-7-(thiazol-2-yl)-5-(trifluoromethyl)benzo[d]oxazole] |  | < 100
25 | OC(c1cc(-c2nccs2)c2oc(N3CC4CCC(C3)N4)nc2c1OC(F)(F)F)C(F)F (centres unmarked) [Example 275, 1-(2-(3,8-Diazabicyclo[3.2.1]octan-3-yl)-7-(thiazol-2-yl)-4-(trifluoromethoxy)benzo[d]oxazol-5-yl)-2,2-difluoroethan-1-ol] | < 100 | 
26 | OC(c1cc(-c2cscn2)c2oc(N3CC4CCC(C3)N4)nc2c1OC(F)(F)F)C(F)F (centres unmarked) [Example 302, 1-(2-(3,8-Diazabicyclo[3.2.1]octan-3-yl)-7-(thiazol-4-yl)-4-(trifluoromethoxy)benzo[d]oxazol-5-yl)-2,2-difluoroethan-1-ol] | < 100 | 
27 | CCOC(=O)c1cc(-n2cccn2)c2oc(N3CC4COCC(C3)N4)nc2c1 [Example 92, Ethyl 2-(3-oxa-7,9-diazabicyclo[3.3.1]nonan-7-yl)-7-(1H-pyrazol-1-yl)benzo[d]oxazole-5-carboxylate] |  | > 1000
28 | CC(O)c1cc(-c2nccs2)c2oc(N3CC4CCC(C3)N4O)nc2c1OC(F)(F)F (centres unmarked) [Example 383, 3-(5-(1-Hydroxyethyl)-7-(thiazol-2-yl)-4-(trifluoromethoxy)benzo[d]oxazol-2-yl)-3,8-diazabicyclo[3.2.1]octan-8-ol] | > 1000 | 
29 | CCOC(=O)c1cc(-c2nccs2)c2oc(N3CC4COCC(C3)N4)nc2c1 [Example 88, Ethyl 2-(3-oxa-7,9-diazabicyclo[3.3.1]nonan-7-yl)-7-(thiazol-2-yl)benzo[d]oxazole-5-carboxylate] |  | 100 to 1000
30 | CC(O)(c1ccc(-c2nccs2)c2oc(N3CC4CC(C3)N4)nc12)C(F)F (centres unmarked) [Example 126, 2-(2-(3,6-Diazabicyclo[3.1.1]heptan-3-yl)-7-(thiazol-2-yl)benzo[d]oxazol-4-yl)-1,1-difluoropropan-2-ol] |  | < 100
31 | CC(O)C(F)(F)Oc1ccc(-c2cscn2)c2oc(N3CC4CCC(C3)N4)nc12 (centres unmarked) [Example 310, 1-((2-(3,8-Diazabicyclo[3.2.1]octan-3-yl)-7-(thiazol-4-yl)benzo[d]oxazol-4-yl)oxy)-1,1-difluoropropan-2-ol] | < 100 | 
32 | COC(C)c1cc(-c2nccs2)c2oc(N3CC4CCC(C3)N4)nc2c1 (centres unmarked) [Example 110, 2-(3,8-Diazabicyclo[3.2.1]octan-3-yl)-5-(1-methoxyethyl)-7-(thiazol-2-yl)benzo[d]oxazole] |  | < 100
33 | OC(c1ccc(-c2nccs2)c2oc(N3CC4CCC(C3)N4O)nc12)C(F)(F)F (centres unmarked) [Example 379, 3-(7-(Thiazol-2-yl)-4-(2,2,2-trifluoro-1-hydroxyethyl)benzo[d]oxazol-2-yl)-3,8-diazabicyclo[3.2.1]octan-8-ol] | < 100 | 
34 | COCCOC(c1cc(-c2nccs2)c2oc(N3CC4CC(C3)N4)nc2c1)C(F)(F)F (centres unmarked) [Example 154, 2-(3,6-Diazabicyclo[3.1.1]heptan-3-yl)-7-(thiazol-2-yl)-5-(2,2,2-trifluoro-1-(2-methoxyethoxy)ethyl)benzo[d]oxazole] |  | < 100
35 | OC(COc1ccc(-c2nccs2)c2oc(N3CC4CC(C3)N4)nc12)C(F)(F)F (centres unmarked) [Example 277, 3-((2-(3,6-Diazabicyclo[3.1.1]heptan-3-yl)-7-(thiazol-2-yl)benzo[d]oxazol-4-yl)oxy)-1,1,1-trifluoropropan-2-ol] | < 100 | 
